Measurements as given in PMC10878344 (Journal of Enzyme Inhibition and Medicinal Chemistry, 2024).
Entries after “also recorded” stand apart in the source; their conditions may differ.

Experiments:
[1] = target: huBuChE (Homo sapiens, UniProt P06276); experiment: huBuChE inhibition, modified Ellman's method; assay type: biochemical
[2] = system: ICR mice; experiment: Acute toxicity test; conditions: ICR mice
[3] = Acute toxicity test; conditions: both, ICR, mouse, in vivo, po, 1000 mg/kg
[4] = system: LPS-induced NO production of mouse microglia cells (BV-2); experiment: LPS-induced NO production in BV-2 microglia; assay type: cell-based; conditions: for NO production: 10 μM compound, LPS-induced BV-2 cells
[5] = target: T1, eqBuChE (Equus caballus, UniProt P81908); experiment: eqBuChE inhibition, modified Ellman's method; assay type: biochemical, equine
[6] = system: scopolamine-induced cognitive impairment mouse model; experiment: Morris water maze test in scopolamine-induced cognitive impairment mouse model; assay type: in vivo, C57BL/6J mice; conditions: scopolamine 5 mg/kg i.p.; for escape latency to the platform: fifth day of training trials; for number of crossing the platform: last day without platform
[7] = PAMPA-BBB in vitro blood-brain barrier permeation assay
[8] = target: eeAChE (Electrophorus electricus, UniProt O42275); experiment: eeAChE inhibition, modified Ellman's method; assay type: biochemical, electric eel
[9] = target: T1, eqBuChE; experiment: Kinetics of BuChE inhibition; assay type: biochemical, equine
[10] = system: BV-2 cells; experiment: BV-2 cell viability; conditions: 10 μM, MTT, 24 h

T1 sequence (P81908 whole entry): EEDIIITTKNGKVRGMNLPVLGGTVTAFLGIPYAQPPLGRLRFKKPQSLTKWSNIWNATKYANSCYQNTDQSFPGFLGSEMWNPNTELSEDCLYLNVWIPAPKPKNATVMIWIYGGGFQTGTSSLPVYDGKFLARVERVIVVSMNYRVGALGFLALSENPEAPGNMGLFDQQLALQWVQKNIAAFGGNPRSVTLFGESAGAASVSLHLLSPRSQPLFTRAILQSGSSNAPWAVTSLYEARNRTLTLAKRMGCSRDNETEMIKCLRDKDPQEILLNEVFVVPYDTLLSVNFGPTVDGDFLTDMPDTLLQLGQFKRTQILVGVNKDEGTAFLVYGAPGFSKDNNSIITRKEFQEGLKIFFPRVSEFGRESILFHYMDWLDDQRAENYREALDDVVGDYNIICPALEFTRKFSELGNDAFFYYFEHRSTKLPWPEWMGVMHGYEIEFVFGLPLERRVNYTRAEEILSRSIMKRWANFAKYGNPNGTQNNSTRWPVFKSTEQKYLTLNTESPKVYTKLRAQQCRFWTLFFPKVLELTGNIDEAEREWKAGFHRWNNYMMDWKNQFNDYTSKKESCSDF
huBuChE, sequence (P06276 29-602): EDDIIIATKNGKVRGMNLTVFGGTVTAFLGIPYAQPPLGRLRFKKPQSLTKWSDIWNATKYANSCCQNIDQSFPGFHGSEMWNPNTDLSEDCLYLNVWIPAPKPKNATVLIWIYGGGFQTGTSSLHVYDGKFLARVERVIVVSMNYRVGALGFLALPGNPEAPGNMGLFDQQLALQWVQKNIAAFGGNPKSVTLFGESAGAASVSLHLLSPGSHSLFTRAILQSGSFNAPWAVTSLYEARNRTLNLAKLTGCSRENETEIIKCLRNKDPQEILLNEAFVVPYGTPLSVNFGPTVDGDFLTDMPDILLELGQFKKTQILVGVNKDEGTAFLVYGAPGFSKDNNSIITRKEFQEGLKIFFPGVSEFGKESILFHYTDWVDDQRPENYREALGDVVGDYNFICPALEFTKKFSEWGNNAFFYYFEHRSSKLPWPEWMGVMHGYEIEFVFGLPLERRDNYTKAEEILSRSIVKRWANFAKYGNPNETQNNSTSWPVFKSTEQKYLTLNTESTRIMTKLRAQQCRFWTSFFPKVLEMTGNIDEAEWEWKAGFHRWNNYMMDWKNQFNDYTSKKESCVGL
eeAChE, sequence (O42275 24-633): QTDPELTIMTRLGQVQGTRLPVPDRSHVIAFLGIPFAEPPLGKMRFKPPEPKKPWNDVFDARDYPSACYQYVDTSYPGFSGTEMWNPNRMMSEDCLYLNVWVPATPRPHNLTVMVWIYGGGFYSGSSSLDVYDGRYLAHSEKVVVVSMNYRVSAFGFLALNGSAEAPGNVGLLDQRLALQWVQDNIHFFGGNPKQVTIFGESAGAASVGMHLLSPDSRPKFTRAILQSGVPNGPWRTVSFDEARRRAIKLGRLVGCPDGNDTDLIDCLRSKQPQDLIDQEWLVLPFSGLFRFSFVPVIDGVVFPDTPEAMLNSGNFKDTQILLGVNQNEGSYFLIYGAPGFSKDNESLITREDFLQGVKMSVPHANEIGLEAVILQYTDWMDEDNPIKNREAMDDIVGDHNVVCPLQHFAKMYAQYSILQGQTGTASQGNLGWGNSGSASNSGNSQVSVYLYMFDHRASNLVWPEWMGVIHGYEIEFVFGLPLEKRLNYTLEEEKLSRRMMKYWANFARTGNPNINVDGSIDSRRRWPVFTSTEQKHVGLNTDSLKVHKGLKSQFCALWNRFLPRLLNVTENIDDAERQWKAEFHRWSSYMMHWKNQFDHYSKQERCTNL

## COc1c(/C=C/c2cccc(OC(=O)N3CCCCC3)c2)oc(C)cc1=O [Compound 7p, (E)-3-(2-(3-methoxy-6-methyl-4-oxo-4H-pyran-2-yl)vinyl)phenyl piperidine-1-carboxylate]
[1]
  IC50: 9.12 ± 0.57 nM
[1]; relative to compound 7g
  fold increase in inhibiting huBuChE: 4 fold
[2]; 1000 mg/kg intragastric single dose, 14 d
  abnormal behaviours or deaths after administration: no abnormal behaviours or deaths
[2]; 1000 mg/kg, after 14 d, compared with control group
  pathological changes in heart, liver, spleen and brain (HE staining): did not observe obvious pathological changes
[3]
  LD50 at 14 d: > 1000 mg/kg
[4]
  NO production: 71.18%
[4]; Mus musculus, BV-2, read-out: NO inhibition
  inhibition at 10 µM: 28.8%
[5]
  IC50: 4.68 ± 1.39 nM
[5]; relative to compound 7g
  fold increase in inhibiting eqBuChE: 3 fold
[6]; 1 mg/kg oral once daily
  escape latency to the platform: 30.24 s
  number of crossing the platform: 3.3 times
[6]; 5 mg/kg oral once daily
  escape latency to the platform: 29.12 s
  number of crossing the platform: 3.5 times
[7]; PAMPA
  BBB permeability in the PAMPA-BBB assay (in words): high BBB permeability
[7]; PAMPA, pH 7.4
  Papp at 10 h, 25 μg/mL: 5.7 ± 0.43 ×10⁻⁶ cm/s
[7]; PAMPA-BBB classification from Pe
  CNS (±): CNS + (CNS +: (high BBB permeability), Pe (×10^−6 cm/s) > 3.95)
[8]
  IC50: > 20 µM
[9]
  Ki: 3.15 nM
[9]; Cornish-Bowden plot
  Kib (inhibition constant for the enzyme-substrate complex): 3.84 nM
[9]; Dixon and Cornish-Bowden plots
  type of BuChE inhibition: mix-type; also recorded: mixed-type inhibition

## C[C@]12CCC(=O)C=C1CC[C@@H]1[C@@H]2[C@@H](O)C[C@@]2(C)[C@H]1CC[C@]2(O)C(=O)CO [hydrocortisone, Hydrocortisone, reference compound]
[4]
  NO production: 70.25%
[10]
  cell viability compared to the control group: no significant differences
